O=C(O)c1ccc(-c2ccc(C(=O)O)o2)o1
solubility (mole fraction)
Conditions	in DMAc	in DMSO	in acetic acid	in acetonitrile	in isopropanol	in methanol	in n-pentanol	in water
298.15 K	0.0166	0.00768	8.11e-06	1.73e-06	0.0001	0.000331	0.000146	9.64e-07
303.15 K	0.0208	0.00984	1.13e-05	2.2e-06	0.000106	0.000393	0.000154	1.31e-06
313.15 K	0.0283	0.017	2.35e-05	3.47e-06	0.000154	0.000464	–	1.97e-06
323.15 K	0.0499	0.0282	3.38e-05	5.31e-06	0.000223	0.000574	0.000148	2.55e-06
333.15 K	0.0555	0.0412	6.79e-05	7.91e-06	0.000284	0.000702	0.000214	3.75e-06
343.15 K	0.0807	0.0728	0.000112	1.15e-05	0.000592	0.00109	0.000412	4.84e-06
353.15 K	–	–	0.000214	1.58e-05	0.00116	–	0.000757	7.43e-06
363.15 K	–	–	–	2.12e-05	0.0014	–	0.00144	9.09e-06
